How the values were obtained:
Assay in all cases: microscale thermophoresis
Assay type in all cases: binding
septin7 = target: T1, septin7 (Homo sapiens, UniProt Q16181)
T1 sequence (Q16181 2-437): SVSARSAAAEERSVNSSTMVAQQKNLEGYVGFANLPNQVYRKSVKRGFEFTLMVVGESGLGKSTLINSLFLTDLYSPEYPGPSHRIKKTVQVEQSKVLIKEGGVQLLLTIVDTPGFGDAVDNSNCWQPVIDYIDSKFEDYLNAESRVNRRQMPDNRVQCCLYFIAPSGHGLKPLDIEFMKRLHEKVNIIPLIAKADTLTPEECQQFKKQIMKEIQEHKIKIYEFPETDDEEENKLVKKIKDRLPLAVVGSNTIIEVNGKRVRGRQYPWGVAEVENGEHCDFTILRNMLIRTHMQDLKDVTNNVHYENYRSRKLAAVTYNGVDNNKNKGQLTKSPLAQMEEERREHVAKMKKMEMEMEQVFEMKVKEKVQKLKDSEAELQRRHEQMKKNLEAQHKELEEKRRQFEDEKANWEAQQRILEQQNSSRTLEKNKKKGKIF

septin6 = target: T2, septin6 (Homo sapiens, UniProt Q14141)
T2 sequence (Q14141 2-434): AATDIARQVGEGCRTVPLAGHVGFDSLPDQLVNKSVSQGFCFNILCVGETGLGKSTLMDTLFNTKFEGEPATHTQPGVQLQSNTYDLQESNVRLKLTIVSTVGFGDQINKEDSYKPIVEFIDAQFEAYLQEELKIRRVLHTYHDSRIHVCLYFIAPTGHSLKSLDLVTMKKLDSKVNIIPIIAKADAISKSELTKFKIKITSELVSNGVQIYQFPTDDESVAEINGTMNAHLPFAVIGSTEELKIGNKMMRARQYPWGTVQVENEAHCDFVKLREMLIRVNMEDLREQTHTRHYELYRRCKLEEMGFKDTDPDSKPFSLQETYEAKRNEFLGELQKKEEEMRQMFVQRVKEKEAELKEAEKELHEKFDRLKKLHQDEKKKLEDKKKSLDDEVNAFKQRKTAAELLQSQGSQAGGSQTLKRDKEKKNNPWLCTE

septin2 = target: T3, septin2 (Homo sapiens, UniProt Q15019)
T3 sequence (Q15019 1-361): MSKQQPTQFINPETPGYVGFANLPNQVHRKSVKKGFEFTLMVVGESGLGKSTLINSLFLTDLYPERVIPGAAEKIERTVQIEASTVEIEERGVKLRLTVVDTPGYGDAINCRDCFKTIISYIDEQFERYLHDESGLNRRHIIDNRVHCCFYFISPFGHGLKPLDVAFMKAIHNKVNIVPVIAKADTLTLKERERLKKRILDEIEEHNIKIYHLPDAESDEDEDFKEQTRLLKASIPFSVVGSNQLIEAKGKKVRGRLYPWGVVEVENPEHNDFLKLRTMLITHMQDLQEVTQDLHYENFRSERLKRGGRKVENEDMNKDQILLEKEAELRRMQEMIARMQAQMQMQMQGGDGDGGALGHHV

Kd (septin7): 0.98 µM | Kd (septin6): 43.1 µM | Kd (septin2): 54.8 µM
SMILES: OC1(c2ccc(Cl)c(C(F)(F)F)c2)CCN(CCCC(c2ccc(F)cc2)c2ccc(F)cc2)CC1 [PFD, penfluridol]

— PMC11754080 (iScience, 2024)
